Laboratory results taken from publication PMC7503370, “Cellular Signaling and Anti-Apoptotic Effects of Prolactin-Releasing Peptide and Its Analog on SH-SY5Y Cells” (International Journal of Molecular Sciences, 2020).
Numbered stars: 1 amine (or outer) side, 2 acyl side, 3 side chain; on linkers, the order of the positions; unused ones are H or OH. Side chains are listed from the residue outwards. Peptide text beside a SMILES is read from it. * marks the point of attachment. γGlu = O=C(O)[C@H](CCC(=O)[*:2])N[*:1]; Palmitoyl = CCCCCCCCCCCCCCCC(=O)*

What was measured:
Type in all cases: cell-based, human
[1] = tested on: p-c-Jun, p-ERK, p-Bad, Bax/Bcl-2 in SH-SY5Y cells; test: Western blotting of anti-apoptotic signaling in MG-stressed cells; conditions: 4 h pretreatment 1 × 10^−5 M, then 0.6 mM MG 16 h, vs MG, triplicates; for decrease of the MG-increased level of p-Bad (Ser112)/Bad / decrease of the MG-increased level of p-Bad (Ser136)/Bad / decrease of the MG-increased level of p-c-Jun (Ser73)/c-Jun: normalized to GAPDH
Protocol: Figure 7 PrRP31 and palm^11-PrRP31 affected anti-apoptotic signaling in SH-SY5Y cells. Immunoblots: (a) and their quantifications: (b). SH-SY5Y cells were pretreated with PrRP31 and palm^11-PrRP31 at a concentration of 1 × 10^−5 M for 4 h and then stressed with 0.6 mM MG for 16 h. Activation was expressed as the ratio of the activated protein to the total amount of the protein, both normalized to loading control, GAPDH. Data are presented as the means ± SEM as a percentage of control cells treated with medium alone. Analysis is made vs. MG by a Student’s t-test, * p < 0.5, ** p < 0.01 (each sample in triplicates).
(§1) For the investigation of the molecular mechanism of PrRP31 and its analog in the cells, signaling pathways were studied by Western blotting (WB). The cells were cultured in 6-well plates at a density of 800,000 cells per well. Growth medium was exchanged for serum-free DMEM 16 h before an experiment, and then, the cells were incubated with PrRP31, palm^11-PrRP31, or scrambled peptide at a final concentration of 1 × 10^−5 M or insulin at a concentration of 1 × 10^−7 M at 37 °C for 8 min. The cells were rapidly cooled on ice and lysed in 400 µl of Laemmli sample buffer (62.5 mM Tris-HCl with pH 6.8, 2% SDS, 10% glycerol, 0.01% bromophenol blue, 5% mercaptoethanol, 50 mM NaF, and 1 mM Na3VO4) and stored at −20 °C. Afterward, the cell lysates were analyzed by WB. SDS-electrophoresis and WB were carried out using a Criterion system with a 26-well 4−15% Criterion^TM TGX^TM Precast Midi Protein Gel (Bio-Rad, Hercules, CA, USA) at a constant voltage of 200 V or 100 V, respectively.
(§2) Subsequently, the membranes were incubated overnight with primary antibody (Ab) at 4 °C, according to the manufacturer´s instructions (Table 2). The next day, the membranes were incubated with an HRP-linked secondary antibody for 1 h at room temperature. Chemiluminescence was visualized with a ChemiDoc^TM System (Bio-Rad). Band intensities were normalized using glyceraldehyde 3-phosphate dehydrogenase (GAPDH) as an internal loading control.
For analysis of the molecular mechanism during MG stress, the growth medium was exchanged for serum-free DMEM 16 h before the experiment. The cells were pretreated with 1 × 10^−5 M PrRP31 or palm^11-PrRP31 for 4 h; then, MG was added to a final concentration of 0.6 mM, and the cells were incubated at 37 °C for 16 h. The controls and compounds were tested in triplicate.

[2] = tested on: ERK-CREB signaling pathway in SH-SY5Y cells; test: Western blotting of ERK-CREB signaling pathway after 8 min incubation; conditions: 1 × 10^−5 M, 37 °C, vs control cells (medium alone), normalized to GAPDH, n = 3, triplicates
Protocol: (§3) Figure 2 PrRP31 and palm^11-PrRP31 increased phosphorylation of extracellular signal-regulated kinase/cAMP response element-binding protein (ERK-CREB) signaling pathway in SH-SY5Y cells. Immunoblots: (a) and their quantifications: (b). SH-SY5Y cells were incubated either with PrRP31 and its palmitoylated analog and scrambled at a final concentration 1 × 10^−5 M, or with insulin at the final concentration 1 × 10^−7 M at 37 °C for 8 min, or medium alone. Activation was expressed as the ratio of the activated protein to the total amount of the protein, both normalized to loading control, GAPDH. Data are presented as the means ± SEM as a percentage of control cells treated with medium alone analyzed by one-way ANOVA followed by the Dunnett post hoc test, * p < 0.5, ** p < 0.01, **** p < 0.0001 (n = 3, each sample in triplicates).
as §1, §2
Eight minutes of incubation was performed in a series of experiments with different exposure times (5, 10, 15, 30, and 60 min) to PrRP31 and its palmitoylated analog. Activation of analogs was strongest after 10 min. Then, the cells were treated with inhibitors of signaling pathways for 2 min, and analogs were added for 8 min. […] Activation is expressed as the ratio of the activated protein to the total amount of the protein. […]

[3] = tested on: PI3K/Akt signaling pathway in SH-SY5Y cells; test: Western blotting of PI3K/Akt signaling pathway after 8 min incubation; conditions: 1 × 10^-5 M, 37 °C, vs control cells (medium alone), normalized to GAPDH, n = 3, triplicates
Protocol: as §3, with “1 Prolactin-releasing peptide 31 (PrRP31)” for “2 PrRP31”, “phosphoinositide-3 kinase (PI3K/Akt)” for “phosphorylation of extracellular signal-regulated kinase/cAMP response element-binding protein (ERK-CREB)”, “10^-5” for “10^−5”, “alone (control).” for “alone.”, “glyceraldehyde 3-phosphate dehydrogenase (GAPDH).” for “GAPDH.”, “cells” for “cells treated with medium alone”
as §1, §2
Eight minutes of incubation was performed in a series of experiments with different exposure times (5, 10, 15, 30, and 60 min) to PrRP31 and its palmitoylated analog. Activation of analogs was strongest after 10 min. Then, the cells were treated with inhibitors of signaling pathways for 2 min, and analogs were added for 8 min. The time of exposure was set to 8 min to ensure that the incubation time for PrRP31 and its palmitoylated analog was the same. The controls and compounds were tested in triplicate in three independent experiments. The PI3K/Akt pathway is one of the main signaling pathways of insulin; therefore, insulin was used as a positive control. Scrambled peptide was used as a negative control. Activation is expressed as the ratio of the activated protein to the total amount of the protein. GAPDH was used as a loading control.

Structure (SMILES): CC[C@H](C)[C@H](NC(=O)CNC(=O)[C@H](CCCNC(=N)N)NC(=O)[C@H](CO)NC(=O)[C@H](C)NC(=O)[C@H](Cc1ccc(O)cc1)NC(=O)[C@H](Cc1c[nH]c2ccccc12)NC(=O)[C@H](C)NC(=O)[C@@H]1CCCN1C(=O)[C@H](CC(N)=O)NC(=O)[C@@H](NC(=O)[C@H](CC(=O)O)NC(=O)[C@@H]1CCCN1C(=O)[C@@H](NC(=O)[C@H](CCCNC(=N)N)NC(=O)[C@@H](NC(=O)[C@H](CCC(=O)O)NC(=O)[C@H](CCSC)NC(=O)[C@H](CO)NC(=O)[C@H](Cc1c[nH]cn1)NC(=O)[C@H](CCCNC(=N)N)NC(=O)[C@H](Cc1c[nH]cn1)NC(=O)[C@@H](NC(=O)[C@H](CCCNC(=N)N)NC(=O)[C@@H](N)CO)[C@@H](C)O)[C@@H](C)CC)[C@@H](C)O)[C@@H](C)CC)C(=O)N[C@@H](CCCNC(=N)N)C(=O)N1CCC[C@H]1C(=O)N[C@H](C(=O)NCC(=O)N[C@@H](CCCNC(=N)N)C(=O)N[C@@H](Cc1ccccc1)C(N)=O)C(C)C [PrRP31]
- decrease of the MG-increased level of p-Bad (Ser112)/Bad [1]: tended to decrease
- decrease of the MG-increased level of p-Bad (Ser136)/Bad [1]: tended to decrease
- decrease of the MG-increased level of p-c-Jun (Ser73)/c-Jun [1]: tended to decrease
- increase of p-CREB (Ser133)/CREB [2]: 68%
- increase of p-ERK (Thr 202/Tyr204)/ERK [2]: 36%
- increase of the level of p-Akt (Ser473)/Akt [3]: 53%
- increase of the level of p-GSK3β (inhibitory Ser9)/GSK3β [3]: 41%
- increase of the level of p-m-Tor (Ser2448)/m-Tor [3]: 22%

Structure (SMILES): CCCCCCCCCCCCCCCC(=O)N[C@@H](CCC(=O)NCCCC[C@H](NC(=O)[C@@H](NC(=O)[C@H](CCC(=O)O)NC(=O)[C@H](CCSC)NC(=O)[C@H](CO)NC(=O)[C@H](Cc1c[nH]cn1)NC(=O)[C@H](CCCNC(=N)N)NC(=O)[C@H](Cc1c[nH]cn1)NC(=O)[C@@H](NC(=O)[C@H](CCCNC(=N)N)NC(=O)[C@@H](N)CO)[C@@H](C)O)[C@@H](C)CC)C(=O)N[C@H](C(=O)N1CCC[C@H]1C(=O)N[C@@H](CC(=O)O)C(=O)N[C@H](C(=O)N[C@@H](CC(N)=O)C(=O)N1CCC[C@H]1C(=O)N[C@@H](C)C(=O)N[C@@H](Cc1c[nH]c2ccccc12)C(=O)N[C@@H](Cc1ccc(O)cc1)C(=O)N[C@@H](C)C(=O)N[C@@H](CO)C(=O)N[C@@H](CCCNC(=N)N)C(=O)NCC(=O)N[C@H](C(=O)N[C@@H](CCCNC(=N)N)C(=O)N1CCC[C@H]1C(=O)N[C@H](C(=O)NCC(=O)N[C@@H](CCCNC(=N)N)C(=O)N[C@@H](Cc1ccccc1)C(N)=O)C(C)C)[C@@H](C)CC)[C@@H](C)CC)[C@@H](C)O)C(=O)O [palm^11-PrRP31] (H-SRTHRHSMEIK([γGlu-Palmitoyl])TPDINPAWYASRGIRPVGRF-NH2; N-terminus assumed)
- decrease of the MG-increased level of p-Bad (Ser112)/Bad [1]: 46%
- decrease of the MG-increased level of p-Bad (Ser136)/Bad [1]: 52%
- decrease of the MG-increased level of p-c-Jun (Ser73)/c-Jun [1]: 37%
- attenuation of the MG-increased ratio of Bax/Bcl−2 [1]: 38%
- increase of p-CREB (Ser133)/CREB [2]: 238%
- increase of p-ERK (Thr 202/Tyr204)/ERK [2]: 74%
- increase of the level of p-Akt (Ser473)/Akt [3]: 48%
- increase of the level of p-Akt (Thr308)/Akt [3]: 36%
- increase of the level of p-GSK3β (inhibitory Ser9)/GSK3β [3]: 85%
- increase of the level of p-PDK1 (Ser241)/PDK1 [3]: 20%
- increase of the level of p-m-Tor (Ser2448)/m-Tor [3]: 22%
